Test results taken from patent US6881739B1, “Use of cortisol antagonists in the treatment of heart failure” (priority 1999, dated 2005).

System: heart failure
Assay: Treatment of heart failure patients with ketoconazole (case observations, Examples 1 and 2)
Format: in vivo, human
Experimental: Also, moderate dyspnea and increased heart rate as well as an increase in liver size (indicative of fluid retention in the liver). Patient being treated for heart failure with lisinopril (Zestril®) Treatment: 400 mg of a racemate of the Cis-2S,4R and Cis-2R,4S isomers of ketoconazole (Fungoral™ tablets—Janssen-Cilag, Belgium) was administered at 10.00 pm every day for a 3 month period. Observations: Body weight reduced by 3.8 kg—attributable to a reduction in fluid retention. Heart rate fell from 72 beats/min to 62 beats/min. Reduction in liver size of 10% and a resulting reduction in liver transaminases • S-ASAT reduced from 0.44 to 0.30 μKat/L • S-ALAT reduced from 1.0 to 0.39 μKat/L Dyspnea, oedema of lower limbs and body fluid in the lungs reduced. Physical health as measured by a subnormal physical exercise test (Faggiano, P. et al. supra) improved by 15%.
Patient being treated for heart failure with furosemid (40 mg/day)
Treatment: As for Example 1.

[1] = Subject 1, 400 mg daily for 3 months
[2] = Subject 2, treatment as for Example 1

CC(=O)N1CCN(c2ccc(OCC3COC(Cn4ccnc4)(c4ccc(Cl)cc4Cl)O3)cc2)CC1 (racemic) [ketoconazole]
Body weight reduced by (Subject 1 (on lisinopril), 400 mg at 10.00 pm every day for 3 months, attributable to reduced fluid retention): 3.8 kg
Dose of co-administered lisinopril (Zestril) could be reduced [1]: half of original dose
Dyspnea, oedema of lower limbs and body fluid in the lungs [1]: reduced
Physical health as measured by a subnormal physical exercise test, improved by [1]: 15%
Reduction in liver size [1]: 10%
Heart rate after treatment (Subject 1, 400 mg daily for 3 months, fell from 72 beats/min): 62 beats/min
S-ASAT after treatment (Subject 1, 400 mg daily for 3 months, reduced from 0.44): 0.30 μKat/L
S-ALAT after treatment (Subject 1, 400 mg daily for 3 months, reduced from 1.0): 0.39 μKat/L
Body weight reduced by (Subject 2 (on furosemid 40 mg/day), treatment as for Example 1): 4.2 kg
Dyspnea, oedema of lower limbs and body fluid in lungs [2]: reduced
Physical health as measured by a subnormal physical exercise test, improved by [2]: 20%
Reduction in liver size [2]: 15%
Time from commencement of treatment until furosemid could be stopped [2]: ≤ 6 weeks
Heart rate after treatment (Subject 2, treatment as for Example 1, fell from 74 beats/min): 60 beats/min
S-ASAT after treatment (Subject 2, treatment as for Example 1, reduced from 0.58): 0.32 μKat/L
S-ALAT after treatment (Subject 2, treatment as for Example 1, reduced from 0.92): 0.68 μKat/L
